Results published in patent publication US9561231B2 (AbbVie Inc., priority 2012, dated 2017).
Where two headings read alike, the source gives them in different places.

How the values were obtained:
[1] = molecular target: T1, first (BD1: amino acids K57-E168) bromodomain of BRD4 (Homo sapiens, UniProt O60885); assay: TR-FRET bromodomain binding assay, BRD4 BD1; settings: Ki calculated from IC50, probe Kd and probe concentration, read-out: TR-FRET Binding Ki: BRD4 (BDI_K57-E168)
T1 construct: His-tagged first (BD1: amino acids K57-E168)
Outline: (§1)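 Displacement of an Alexa647-labelled BET-inhibitor from His-tagged BD1 (K57-E168) or BD2 ([…]) measured by TR-FRET in pH 6.0 sodium phosphate buffer with NaCl, EDTA, Triton X-100 and DTT.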

[2] = molecular target: T2, second (BD2: amino acids E352-E168) bromodomain of BRD4 (Homo sapiens, UniProt O60885); assay: TR-FRET bromodomain binding assay, BRD4 BD2; settings: Ki calculated from IC50, probe Kd and probe concentration, read-out: TR-FRET Binding Ki: BRD4 (BDII_E352-M457)
T2 construct: protocol
Outline: as §1

[3] = TR-FRET assay protocol (A-G, compound concentration range)
[4] = TR-FRET assay protocol (D, E or G) per compound

With `CCOc1cc(=O)n(C)cc1-c1cc(NCCC(C)(C)C)ccc1Oc1ccc(F)cc1F` [Example 306, 5-{2-(2,4-difluorophenoxy)-5-[(3,3-dimethylbutyl)amino]phenyl}-4-ethoxy-1-methylpyridin-2(1H)-one] the Ki [1, 3] was 542 nM and the Ki [2, 3] was 349 nM.

Work on `Cn1nc(-c2ccccc2Oc2ccccc2)c(-c2cccc(CN3CCOCC3)c2)cc1=O` [Example 141, 2-methyl-5-[3-(morpholin-4-ylmethyl)phenyl]-6-(2-phenoxyphenyl)pyridazin-3(2H)-one] yielded a Ki [1, 3] of 526 nM and a Ki [2, 3] of 297 nM.

`CNC(=O)c1cncc(-c2cc(=O)n(C)nc2-c2ccccc2Oc2ccccc2)c1` [Example 122, N-methyl-5-[1-methyl-6-oxo-3-(2-phenoxyphenyl)-1,6-dihydropyridazin-4-yl]pyridine-3-carboxamide] was tested, and the Ki [1, 3] was 8560 nM and the Ki [2, 3] was 4520 nM.

`CNC(=O)c1cccc(-c2cc(=O)n(C)nc2-c2ccccc2Oc2ccccc2)c1` [Example 128, N-methyl-3-[1-methyl-6-oxo-3-(2-phenoxyphenyl)-1,6-dihydropyridazin-4-yl]benzamide] gave a Ki [1, 3] of 1640 nM and a Ki [2, 3] of 376 nM.

`CC1CCN(C(=O)c2cccc(-c3cc(=O)n(C)nc3-c3ccccc3Oc3ccccc3)c2)CC1` [Example 154, 2-methyl-5-{3-[(4-methylpiperidin-1-yl)carbonyl]phenyl}-6-(2-phenoxyphenyl)pyridazin-3(2H)-one] showed a Ki [1, 3] of 11900 nM and a Ki [2, 3] of 5940 nM.

Compound `CCOc1cc(=O)n(C)cc1-c1cc(NC(=O)c2ccccc2CCc2ccccc2)ccc1Oc1ccc(F)cc1F` [Example 302, N-[4-(2,4-difluorophenoxy)-3-(4-ethoxy-1-methyl-6-oxo-1,6-dihydropyridin-3-yl)phenyl]-2-(2-phenylethyl)benzamide] has a Ki [1, 3] of 209 nM and a Ki [2, 3] of 47.2 nM.

Work on `CNC(=O)c1cc(=O)n(C)cc1-c1cc(NS(C)(=O)=O)ccc1Oc1ccc(F)cc1F` [Example 276, 5-{2-(2,4-difluorophenoxy)-5-[(methylsulfonyl)amino]phenyl}-N,1-dimethyl-2-oxo-1,2-dihydropyridine-4-carboxamide] yielded a Ki [1, 3] of 916 nM and a Ki [2, 3] of 570 nM.

`CN(C(=O)c1cccc(-c2cc(=O)n(C)nc2-c2ccccc2Oc2ccccc2)c1)C1CCCCC1` [Example 148, N-cyclohexyl-N-methyl-3-[1-methyl-6-oxo-3-(2-phenoxyphenyl)-1,6-dihydropyridazin-4-yl]benzamide] showed a Ki [1, 3] greater than 13000 nM and a Ki [2, 3] of 19700 nM.

Work on `CCOc1cc(=O)n(C)cc1-c1cc(NC(=O)C2CCN(c3ccccc3)C2=O)ccc1Oc1ccc(F)cc1F` (stereo not shown) [Example 295, N-[4-(2,4-difluorophenoxy)-3-(4-ethoxy-1-methyl-6-oxo-1,6-dihydropyridin-3-yl)phenyl]-2-oxo-1-phenylpyrrolidine-3-carboxamide] yielded a Ki [1, 3] of 275 nM and a Ki [2, 3] of 93 nM.

Work on `CCOc1ccc(-c2cc(=O)n(C)nc2-c2ccccc2Oc2ccccc2)cc1` [Example 117, 5-(4-ethoxyphenyl)-2-methyl-6-(2-phenoxyphenyl)pyridazin-3(2H)-one] yielded a Ki [1, 3] of 1490 nM and a Ki [2, 3] of 619 nM.

Compound `Cc1nnc(-c2ccc(-c3cc(=O)n(C)nc3-c3ccccc3Oc3ccccc3)cc2)o1` [Example 91, 2-methyl-5-[4-(5-methyl-1,3,4-oxadiazol-2-yl)phenyl]-6-(2-phenoxyphenyl)pyridazin-3(2H)-one] has a Ki [1, 3] greater than 238 nM and a Ki [2, 3] of 238 nM.

`CCS(=O)(=O)c1ccc(Oc2ccc(F)cc2F)c(-c2cn(C)c(=O)cc2Cl)c1` [Example 382, 4-chloro-5-[2-(2,4-difluorophenoxy)-5-(ethylsulfonyl)phenyl]-1-methylpyridin-2(1H)-one] gave a Ki [1, 4] of 317 nM and a Ki [2, 4] of 276 nM.

`Cn1nc(-c2ccccc2Oc2ccccc2)c(-c2ccc(C(=O)NC3CCCC3)cc2)cc1=O` [Example 169, N-cyclopentyl-4-[1-methyl-6-oxo-3-(2-phenoxyphenyl)-1,6-dihydropyridazin-4-yl]benzamide] showed a Ki [1, 3] of 599 nM and a Ki [2, 3] of 562 nM.

With `CCOc1cc(=O)n(C)cc1-c1cc(N)ccc1Oc1ccc(F)cc1F` [Example 406, 5-[5-amino-2-(2,4-difluorophenoxy)phenyl]-4-ethoxy-1-methylpyridin-2(1H)-one] the Ki [1, 4] was 1550 nM and the Ki [2, 4] was 567 nM.

`CCN(CC)S(=O)(=O)c1cccc(-c2cc(=O)n(C)nc2-c2ccccc2Oc2ccccc2)c1` [Example 146, N,N-diethyl-3-[1-methyl-6-oxo-3-(2-phenoxyphenyl)-1,6-dihydropyridazin-4-yl]benzenesulfonamide] gave a Ki [1, 3] greater than 13000 nM and a Ki [2, 3] of 12200 nM.

In the case of `Cn1nc(-c2ccccc2Oc2ccccc2)c(C2=CCNCC2)cc1=O` [Example 82, 2-methyl-6-(2-phenoxyphenyl)-5-(1,2,3,6-tetrahydropyridin-4-yl)pyridazin-3(2H)-one], the Ki [1, 3] is reported as 4070 nM and the Ki [2, 3] is reported as 2480 nM.

`CN(C)c1cncc(-c2cc(=O)n(C)nc2-c2ccccc2Oc2ccccc2)c1` [Example 216, 5-[5-(dimethylamino)pyridin-3-yl]-2-methyl-6-(2-phenoxyphenyl)pyridazin-3(2H)-one] was tested, and the Ki [1, 3] was 719 nM and the Ki [2, 3] was 462 nM.

For `Cn1nc(-c2ccccc2Oc2ccccc2)c(C2=CCN(S(C)(=O)=O)CC2)cc1=O` [Example 85, 2-methyl-5-[1-(methylsulfonyl)-1,2,3,6-tetrahydropyridin-4-yl]-6-(2-phenoxyphenyl)pyridazin-3(2H)-one], the Ki [1, 3] was 1610 nM and the Ki [2, 3] was 791 nM.

Compound `COc1cc(=O)n(C)nc1-c1ccccc1OCC1CCNCC1` [Example 44, 5-methoxy-2-methyl-6-[2-(piperidin-4-ylmethoxy)phenyl]pyridazin-3(2H)-one] has a Ki [1, 3] of 2710 nM and a Ki [2, 3] of 5110 nM.

With `CCOc1cc(=O)n(C)cc1-c1cc(NS(=O)(=O)CC)ccc1OC1CCN(C(C)=O)CC1` [Example 389, N-{4-[(1-acetylpiperidin-4-yl)oxy]-3-(4-ethoxy-1-methyl-6-oxo-1,6-dihydropyridin-3-yl)phenyl}ethanesulfonamide] the Ki [1, 4] was 1260 nM and the Ki [2, 4] was 3990 nM.

In the case of `Cn1nc(-c2ccccc2Cc2ccccc2)ccc1=O` [Example 222, 6-(2-benzylphenyl)-2-methylpyridazin-3(2H)-one], the Ki [1, 3] is reported as 6840 nM and the Ki [2, 3] is reported as 1360 nM.

`CCOc1cc(=O)n(C)cc1-c1cc(NCC(C)(C)C)ccc1Oc1ccc(F)cc1F` [Example 305, 5-{2-(2,4-difluorophenoxy)-5-[(2,2-dimethylpropyl)amino]phenyl}-4-ethoxy-1-methylpyridin-2(1H)-one] was tested, and the Ki [1, 3] was 557 nM and the Ki [2, 3] was 271 nM.

For `Cn1nc(-c2ccccc2Oc2ccccc2)c(-c2cccc(S(=O)(=O)N3CCCC3)c2)cc1=O` [Example 156, 2-methyl-6-(2-phenoxyphenyl)-5-[3-(pyrrolidin-1-ylsulfonyl)phenyl]pyridazin-3(2H)-one], the Ki [1, 3] was greater than 13000 nM and the Ki [2, 3] was 13100 nM.

`Cn1nc(-c2ccccc2Oc2ccccc2)c(-c2cccnc2)cc1=O` [Example 195, 2-methyl-6-(2-phenoxyphenyl)-5-(pyridin-3-yl)pyridazin-3(2H)-one] was tested, and the Ki [1, 3] was 664 nM and the Ki [2, 3] was 317 nM.

In the case of `CCS(=O)(=O)Nc1ccc(Oc2ccc(F)cc2F)c(-c2cn(C)c(=O)cc2-c2cscc2C=O)c1` [Example 332, N-{4-(2,4-difluorophenoxy)-3-[4-(4-formylthiophen-3-yl)-1-methyl-6-oxo-1,6-dihydropyridin-3-yl]phenyl}ethanesulfonamide], the Ki [1, 3] is reported as 1010 nM and the Ki [2, 3] is reported as 205 nM.

For `Cn1nc(-c2ccccc2Oc2ccccc2)c(-c2cncc(NCc3ccccc3)c2)cc1=O` [Example 138, 5-[5-(benzylamino)pyridin-3-yl]-2-methyl-6-(2-phenoxyphenyl)pyridazin-3(2H)-one], the Ki [1, 3] was 7430 nM and the Ki [2, 3] was 3180 nM.

For `Cn1nc(-c2ccccc2Oc2ccccc2)c(-c2ccc(N3CCCCC3)nc2)cc1=O` [Example 184, 2-methyl-6-(2-phenoxyphenyl)-5-[6-(piperidin-1-yl)pyridin-3-yl]pyridazin-3(2H)-one], the Ki [1, 3] was 2140 nM and the Ki [2, 3] was 1960 nM.

With `CCS(=O)(=O)Nc1ccc(Oc2ccc(F)cc2F)c(-c2cn(C)c(=O)cc2OCCN(C)C)c1` [Example 288, N-(4-(2,4-difluorophenoxy)-3-(4-(2-(dimethylamino)ethoxy)-1-methyl-6-oxo-1,6-dihydropyridin-3-yl)phenyl)ethanesulfonamide] the Ki [1, 3] was 190 nM and the Ki [2, 3] was 551 nM.

In the case of `Cn1nc(-c2ccccc2Oc2ccccc2)c(-c2ccc(CNc3ccccc3)cc2)cc1=O` [Example 187, 2-methyl-6-(2-phenoxyphenyl)-5-{4-[(phenylamino)methyl]phenyl}pyridazin-3(2H)-one], the Ki [1, 3] is reported as 4950 nM and the Ki [2, 3] is reported as 2250 nM.

With `Cn1nc(-c2ccccc2Oc2ccccc2)c(-c2ccc(C(=O)NC(C)(C)C)cc2)cc1=O` [Example 168, N-tert-butyl-4-[1-methyl-6-oxo-3-(2-phenoxyphenyl)-1,6-dihydropyridazin-4-yl]benzamide] the Ki [1, 3] was 1070 nM and the Ki [2, 3] was 993 nM.

In the case of `CCO/C=C/c1cc(=O)n(C)cc1-c1cc(S(C)(=O)=O)ccc1NCC1CC1` [Example 327, 5-{2-[(cyclopropylmethyl)amino]-5-(methylsulfonyl)phenyl}-4-[(E)-2-ethoxyethenyl]-1-methylpyridin-2(1H)-one], the Ki [1, 3] is reported as 680 nM and the Ki [2, 3] is reported as 1110 nM.

`COC(=O)COc1cc(=O)n(C)nc1-c1ccccc1Oc1ccccc1` [Example 38, methyl{[1-methyl-6-oxo-3-(2-phenoxyphenyl)-1,6-dihydropyridazin-4-yl]oxy}acetate] gave a Ki [1, 3] of 6350 nM and a Ki [2, 3] of 6830 nM.
